{"source": "patent US20180318291A1", "about": "“USE OF AMINOTHIAZOLE MYD88 SPECIFIC INHIBITOR TJM2010-5” (WUHAN INNAMUNE PHARMACEUTICAL INC. LTD., priority 2015, published 2018)", "key": {"[1]": {"system": "C57bl/6 mice lymphocytes with Bal b/c DC", "assay": "mixed lymphocyte culture, T cell proliferation after CpG stimulated DC activation", "format": "cell-based", "details": "10, 20, 40 μM, third day, FIG. 8", "protocol": "1. Take the thigh bone of Bal b/c mice, separate the bone marrow cell and add the GMS-CSF and IL-4 cytokines to cultivate marrow-derived DC.\n2. Cultivate them until the sixth day, and dissociate the cells to remove immature DC. Conduct centrifugation and suspend them with 1640 medium.\n3. Add mitomycin (to let the final concentration up to 50 μg/ml), and conduct water bath at 37° C. for 15 min Wash in 1640 medium and count.\n4. Take the spleen of C57bl/6 mice, separate splenic lymphocytes with separating medium of mice lymphocytes and count.\n5. Take the splenic lymphocytes of C57bl/6 mice and label CFSE.\n6. Mix DC derived from Bal b/c and C57bl/6 mice lymphocytes for the mixed lymphocyte culture. And the grouped as follows:\nControl group: Add CPG other than TJM2010-5 in the process of mixed lymphocyte culture.\nExperiment group 1: Add CPG and TJM2010-5 in the process of mixed lymphocyte culture, where, the added TJM2010-5 is 10 μM.\nExperiment group 2: Add CPG and TJM2010-5 in the process of mixed lymphocyte culture, where, the added TJM2010-5 is 20 μM.\nExperiment group 3: Add CPG and TJM2010-5 in the process of mixed lymphocyte culture, where, the added TJM2010-5 is 40 μM.\n1. Cultivate them until the third day, collect cells and detect the proliferation of C57bl/6 mice lymphopoiesis with flow cytometer."}, "[2]": {"system": "lymphocyte subpopulation in receptor spleen", "assay": "lymphocyte subpopulation in receptor spleen by flow cytometry", "format": "in vivo, mice", "details": "FIG. 5", "excerpt": "In vitro experiment: conduct analysis on lymphocyte subpopulation in receptor spleen receiving stimulation of antigen (homogenic, allogeneic), and flow cytometer detection on CD4+CD25+Foxp3+T cell ratio in receptor receiving TJM2010-5 treatment.\n1. Take the receptor spleen of different groups (homogenic, allogenic antigenic stimulation), and grind them to separate lymphocyte;\n2. Add the IFN-γ labeled by flow antibody APC and IL-17 labeled by APC, CD25 labeled by APC and Foxp3 labeled by PE.\n3. Analyze the lymphocyte subpopulation in receptor spleen of various groups, and the CD4+CD25+Foxp3+T cell ratio in receptor receiving TJM2010-5 treatment with flow cytometry."}, "[3]": {"system": "heart of Balb/c mice transplanted to C57bl/6 mice", "assay": "mice heart transplantation model (graft survival)", "format": "in vivo", "details": "Balb/c heart to C57bl/6; 150 mg/kg intraperitoneal day 0 to day 6; survive up to 100 days", "excerpt": "1) Application of TJM2010-5 in Mice Heart Transplantation Model\nFour groups are set in the experiment, which are: control group (conducting heart transplantation without any treatment), CMC group (vehicle control group), TJM2010-5 treatment group (effect detection group) and ciclosporinA (CsA) control group. The specific treatment methods as follows:\nControl group: Take and transplant the heart of Balb/c mice to the abdominal cavity of C57bl/6 mice, and no special treatment is provided after operation;\nCMC control group: Take and transplant the heart of Balb/c mice to the abdominal cavity of C57bl/6 mice, and provide intraperitoneal injection of sodium carboxymethyl cellulose (0.5% CMC) solution without TJM2010-5 on day 0 to day 6 after the heart transplantation, and the dose is 200 μl.\nTJM2010-5 treatment group: Take and transplant the heart of Balb/c mice to the abdominal cavity of C57bl/6 mice, and provide intraperitoneal injection of TJM2010-5 dissolved in CMC on day 0 to day 6 after the heart transplantation, and the dose is 150 mg/kg.\nCsA treatment group: Take and transplant the heart of Balb/c mice to the abdominal cavity of C57bl/6 mice, and provide intraperitoneal injection of CsA on day 0 to day 6 after the heart transplantation, and the dose is 15 mg/kg/day. […]"}, "mice with endoxemia": {"system": "mice with endoxemia", "assay": "endoxemia lethal experiment (LPS)", "format": "in vivo", "details": "250 mg/kg intragastric once a day for three days, then LPS ip; FIG. 15(a)", "protocol": "Part one: Observe the effect of MyD88 inhibitor on mortality of mice with endoxemia. The mice will be divided into 2 groups randomly:\nVehicle control group and experiment group (TJM2010-5 treatment group), and 20 mice in each group. Where, the TJM2010-5 treatment group is provided with the intragastric administration of TJM2010-5 (0.5% CMC solvent, 25 mg/ml) at the dose of 250 mg/kg (200 μL per mouse); the vehicle control group is provided with the intragastric administration of 0.5% CMC, 200 μL per mouse. Apply the intragastric administration once a day, and for three days successively. And on day 3, after the […], provide the intraperitoneal injection of LPS 1 hour later, then, observe the survival condition every twelve hours, and for three days."}, "T cells": {"system": "T cells", "assay": "activation of T cells (FIG. 3a)", "format": "cell-based"}, "C57bl/6 mice kidney IRI": {"system": "C57bl/6 mice kidney IRI", "assay": "renal ischemia reperfusion injury in mice", "format": "in vivo", "protocol": "1. Groups: General C57bl/6 group (Control), CMC vehicle group, MYD88KO group, TJ-M2010 group, the 8 mice in each group will be provided with treatment of ischemia reperfusion: narcotize, block the left kidney with vascular clamp, and place them in incubator of 31 C° for 80 min; after that, open it and remove the right kidney, and then close the abdomen. Collect blood 24 hours later to conduct BUN, Cr detection.\n2. For TJM2010-5 group and CMC group, provide intraperitoneal injection of TJ-M2010-5 dissolved in 0.5% CMC of 150 mg/kg/d on the day before and the day of operation; for CMC group: inject 0.5% CMC solution of 200 μl.\n3. Observe the survival time of mice, and make the survival curve. Send the blood specimen to the pathology department for detection of BUN, Cr."}, "mice with pyohemia": {"system": "mice with pyohemia", "assay": "pyohemia / septicopyemia lethal experiment (cecal ligation and puncture)", "format": "in vivo", "details": "CLP; 250 mg/kg intragastric 4 times every 12 h; FIG. 15(b)", "protocol": "Part two: Observe the effect of MyD88 inhibitor on mortality of mice with pyohemia. The mice will be randomly divided into: sham-operation group, model group, MyD88 inhibitor treatment group. Except for the mice in sham-operation group that only receive post-operative suture, the mice in pyohemia model group and MyD88 inhibitor treatment group are provided with the cecal ligation and puncture (CLP), to copy the pyohemia mice model. At 1 h after operation, apply intragastric administration of 0.5% CMC 200 μL or TJM2010-5 of 250 mg/kg (200 μL) for 4 times successively, and each time lasts for 12 h. After operation, observe the survival rate of mice in each group every 12 h, and for 72 h successively."}}}
{"smiles": "O=C(CCN1CCN(Cc2ccccc2)CC1)Nc1nc(-c2ccccc2)cs1", "note": "[TJM2010-5, 3-(4-benzylpiperazin-1-yl)-N-(4-phenylthiazol-2-yl) propanamide]", "values": [{"measurement": "proliferation in T cells with increasing TJM2010-5", "setting": "[1]", "value": "reduces"}, {"measurement": "IFN-γ vs CMC control group", "setting": "[2]; receptor spleen lymphocytes", "value": "significantly lower than that of CMC control group"}, {"measurement": "IL-17 vs CMC control group", "setting": "[2]; receptor spleen lymphocytes", "value": "significantly lower than that of CMC control group"}, {"measurement": "CD4+CD25+Foxp3+T cell ratio in receptor", "setting": "[2]; receptor spleen", "value": "up-regulated significantly"}, {"measurement": "heart allograft surviving up to 100 days", "setting": "[3]", "value": 80, "unit": "%"}, {"measurement": "death incurred by endotoxin", "setting": "mice with endoxemia", "value": "effectively delay"}, {"measurement": "lethality of endotoxin", "setting": "mice with endoxemia", "value": "reduce"}, {"measurement": "activation of T cells", "setting": "T cells", "value": "dose-dependently reduce"}, {"measurement": "survival rate after mice kidney IRI", "setting": "C57bl/6 mice kidney IRI; 150 mg/kg/d intraperitoneal day before and day of operation, FIG. 6", "value": "significantly improve"}, {"measurement": "protection of kidney functions (BUN, Cr)", "setting": "C57bl/6 mice kidney IRI; 150 mg/kg/d intraperitoneal, blood 24 hours later, FIG. 7", "value": "better protection effect"}, {"measurement": "death time and final mortality of pyohemia in mice", "setting": "mice with pyohemia", "value": "significantly improve"}]}
